A value given as a limit tells only on which side of the number the result lay.

As a reminder, the half-life is the time needed for the level to fall by half in the phase considered.

Test system in one data set: not listed separately
The data set is described as follows: Plasma half-life in 2 weeks-old chickens. The data set is classed as ADME, organism-based, Gallus gallus. Conditions: chicken.
Molecule `O=c1cnn(-c2ccc(S(=O)(=O)c3ccc(Br)cc3)cc2)c(=O)[nH]1` showed a half-life of 19 h.

The molecule `Cc1cc(-n2ncc(=O)[nH]c2=O)ccc1S(=O)(=O)c1ccc(Cl)cc1` had a half-life of 10 h. This half-life lies about 1.9-fold lower than the previous one.

Test system in another data set: not listed separately
Kind of data set: Plasma half-life in 6-8 weeks old broiler chickens. The data set is classed as ADME, organism-based, Gallus gallus. The conditions noted are these: chicken.
As for `O=c1cnn(-c2ccc(Sc3ccc(Cl)cc3)c(Cl)c2)c(=O)[nH]1`, the half-life is 38 h.

Regarding `O=c1cnn(-c2cc(Cl)c(Sc3ccc(Cl)cc3)c(Cl)c2)c(=O)[nH]1`, the half-life is 47 h.

`Cc1cc(-n2ncc(=O)[nH]c2=O)cc(Cl)c1S(=O)(=O)c1ccc(Cl)cc1` gave a half-life of 26 h.

The molecule `Cc1cc(-n2ncc(=O)[nH]c2=O)cc(C)c1Sc1ccc(Cl)cc1` [TIAZURIL] had a half-life of 16 h.

Consider `Cc1cc(-n2ncc(=O)[nH]c2=O)ccc1S(=O)(=O)c1ccc(Cl)cc1`, for which the half-life is 14.5 h.

A further data set relates to Eimeria tenella. Kind of data set: Minimum effective concentration in feed to protect chickens against infections caused by Eimeria tenella. In kind it is functional.
Conditions: not given
Turning to `O=c1cnn(-c2ccc(S(=O)(=O)c3ccc(Cl)cc3)cc2)c(=O)[nH]1`, the MEC worked out at 4 p.p.m.

`Cc1cc(-n2ncc(=O)[nH]c2=O)cc(Cl)c1Sc1ccc(Cl)cc1` came in with an MEC of 0.25 p.p.m.

Molecule `CCc1cc(-n2ncc(=O)[nH]c2=O)cc(C)c1Sc1ccc(Cl)cc1` returned an MEC of 60 p.p.m.

`O=c1cnn(-c2ccc(S(=O)(=O)Cc3ccc(Cl)cc3)cc2)c(=O)[nH]1` returned an MEC of 250 p.p.m.

Molecule `O=c1cnn(-c2ccc(Sc3ccc([N+](=O)[O-])cc3)cc2)c(=O)[nH]1` showed an MEC of 30 p.p.m.

`O=c1cnn(-c2ccc(S(=O)(=O)Cc3ccccc3)cc2)c(=O)[nH]1`: the MEC is recorded as above 125 p.p.m.

The molecule `Cc1ccc(S(=O)(=O)c2ccc(-n3ncc(=O)[nH]c3=O)cc2)cc1` registered an MEC of 250 p.p.m.

For `O=c1cnn(-c2ccc(Sc3ccc(Cl)cc3)cc2)c(=O)[nH]1`, the MEC was 4 p.p.m.

With `CS(=O)(=O)c1c(Cl)cc(-n2ncc(=O)[nH]c2=O)cc1Cl`, the MEC was above 125 p.p.m.

Turning to `Cc1ccccc1S(=O)(=O)c1ccc(-n2ncc(=O)[nH]c2=O)cc1`, the MEC is listed as above 125 p.p.m.

`CC(C)(C)c1ccc(Sc2ccc(-n3ncc(=O)[nH]c3=O)cc2Cl)cc1`: the MEC is above 60 p.p.m.

`Cc1cc(-n2ncc(=O)[nH]c2=O)ccc1S(=O)(=O)c1ccc(Br)cc1` registered an MEC of 15 p.p.m.

Consider `O=c1cnn(-c2ccc(Sc3ccc(Cl)cc3)c([N+](=O)[O-])c2)c(=O)[nH]1`, for which the MEC is 60 p.p.m.

As to `O=c1cnn(-c2ccc(Sc3ccc(Cl)cc3)c(Cl)c2)c(=O)[nH]1`, the MEC is listed as 2 p.p.m.

In turn, `O=c1cnn(-c2ccc(S(=O)(=O)c3ccc(Br)cc3)cc2)c(=O)[nH]1` yielded an MEC of 8 p.p.m.

For `CC(C)(C)c1ccc(S(=O)(=O)c2ccc(-n3ncc(=O)[nH]c3=O)cc2)cc1`, the MEC was above 250 p.p.m.

`O=c1cnn(-c2ccc(S(=O)(=O)c3ccccc3)cc2)c(=O)[nH]1` yielded an MEC of 30 p.p.m.

Molecule `CC(c1ccccc1)S(=O)(=O)c1ccc(-n2ncc(=O)[nH]c2=O)cc1` (stereo not given) registered an MEC above 125 p.p.m.

`O=c1cnn(-c2cc(Cl)c(S(=O)(=O)c3ccc(Cl)cc3)c(Cl)c2)c(=O)[nH]1` yielded an MEC of 0.5 p.p.m.

The molecule `O=c1cnn(-c2cc(Cl)c(Sc3ccc(S(=O)(=O)N4CCOCC4)cc3)c(Cl)c2)c(=O)[nH]1` returned an MEC above 60 p.p.m.

For the molecule `O=c1cnn(-c2ccc(Sc3ccc4ccccc4c3)c(Cl)c2)c(=O)[nH]1`, the MEC turned out to be 125 p.p.m.

With `Cc1cc(-n2ncc(=O)[nH]c2=O)cc(C)c1S(=O)(=O)c1ccc(Cl)cc1`, the MEC was determined as 1 p.p.m.

With `O=c1cnn(-c2cc(Cl)c(Sc3ccccc3)c(Cl)c2)c(=O)[nH]1`, the MEC is recorded as 8 p.p.m.

In turn, `O=c1cnn(-c2cc(Cl)c(Sc3ccc(Cl)cc3)c(Cl)c2)c(=O)[nH]1` showed an MEC of 0.25 p.p.m.

In turn, `CSc1c(Cl)cc(-n2ncc(=O)[nH]c2=O)cc1Cl` returned an MEC of 30 p.p.m.

For the molecule `Cc1cc(-n2ncc(=O)[nH]c2=O)ccc1[S+]([O-])c1ccc(Cl)cc1` (stereo not given), the MEC stood at 4 p.p.m.

As to `O=c1cnn(-c2ccc(S(=O)(=O)c3ccc([N+](=O)[O-])cc3)cc2)c(=O)[nH]1`, the MEC is listed as above 250 p.p.m.

As to `C[S+]([O-])c1c(Cl)cc(-n2ncc(=O)[nH]c2=O)cc1Cl` (stereo not given), the MEC is given as above 125 p.p.m.

`Cc1cc(-n2ncc(=O)[nH]c2=O)cc(Cl)c1S(=O)(=O)c1ccc(Cl)cc1` displayed an MEC of 15 p.p.m.

`Cc1cc(-n2ncc(=O)[nH]c2=O)cc(C)c1Sc1ccc(I)cc1` had an MEC of 15 p.p.m.

Molecule `Cc1cc(-n2ncc(=O)[nH]c2=O)cc(C)c1Sc1ccc(Cl)cc1` [TIAZURIL] gave an MEC of 0.5 p.p.m.

The molecule `O=c1cnn(-c2ccc(Sc3ccc(Br)cc3)c(Cl)c2)c(=O)[nH]1` registered an MEC of 2 p.p.m.

Regarding `O=c1cnn(-c2ccc(S(=O)(=O)c3ccc(Cl)cc3)c(Cl)c2)c(=O)[nH]1`, the MEC came to 2 p.p.m.

With `Cc1cc(-n2ncc(=O)[nH]c2=O)ccc1S(=O)(=O)c1ccc(Cl)cc1`, the MEC is given as 2 p.p.m.

In turn, `Cc1cc(-n2ncc(=O)[nH]c2=O)ccc1Sc1ccc(Cl)cc1` had an MEC of 2 p.p.m.

Consider `COc1cc(-n2ncc(=O)[nH]c2=O)ccc1S(=O)(=O)c1ccc(Cl)cc1`, for which the MEC is above 125 p.p.m.

The molecule `O=c1cnn(-c2cc(Br)c(Sc3ccc([N+](=O)[O-])cc3)c(Br)c2)c(=O)[nH]1` had an MEC of 8 p.p.m.

The molecule `Cc1cc(-n2ncc(=O)[nH]c2=O)cc(C)c1[S+]([O-])c1ccc(Cl)cc1` (stereo not given) yielded an MEC of 1 p.p.m.

These data come from ChEMBL document CHEMBL1121746, “Anticoccidial derivatives of 6-azauracil. 4. A 1000-fold enhancement of potency by phenyl sulfide and phenyl sulfone side chains” (J Med Chem, 1981).
